Here are results for six compounds from ChEMBL document CHEMBL1201862, “PubChem BioAssay data set” (2004).

For assay [1], the system named is BJ. Nature of the assay: cytotoxicity toward BJ-TERT fibroblasts, dose response, cell-based, RAS-independent, luminescence (AID 1933). The settings on record: Homo sapiens. Format: functional.
The subject of assay [2] is BJ. Nature of the assay: cells. The settings on record: Homo sapiens. Format: functional, cell-based.
Assay [3] is described as follows: HEp-2 cell cytotoxicity, dose response, cytotoxicity control for RSV inhibitor project, HTS (AID 2410). The settings on record: human respiratory syncytial virus. It is filed as functional.
A short description of assay [4]: cytotoxicity toward DRD oncogenic fibroblasts, dose response, cell-based, non-viral oncogenic, luminescence (AID 1934). It is filed as functional. The settings on record: Homo sapiens.
The test system of assay [5] is BJ. Description: cytotoxicity toward BJ-TERT-LT-ST fibroblasts, dose response, cell-based, RAS-independent, luminescence (AID 1935).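 Also: BJ fibroblasts immortalized with TERT plus LT and ST oncogenes.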 The settings on record: Homo sapiens. It is filed as functional.
The test system of assay [6] is BJ. Nature of the assay: cytotoxicity toward Ras-transformed BJeLR fibroblasts, dose response, cell-based, alamar blue fluorescence, cherrypicked samples (AID 2631).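 Also: confirmatory dose-response assay in RAS-dependent BJ fibroblasts engineered with TERT, LT and ST, with cytotoxicity read by fluorescence.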 It is filed as functional. The settings on record: Homo sapiens.
Assay [7] is described as follows: growth suppression of PTEN-null colon cells, dose response, cell-based, HCT116 PTEN knockout (AID 1047).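 Also: HCT116 colon tumor cells with PTEN knocked out; cells exposed to compound for 60 hours before readout; potency for loss of cell viability measured by luminescence.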 It is filed as functional.
Assay [8] is described as follows: growth suppression of beta-catenin-knockout colon cells, dose response, cell-based, HCT116, human colon tumor (AID 1045).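 Also: HCT116 colon tumor cells with beta catenin knocked out; cells exposed to compound for 60 hours.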 It is filed as functional.
For the next assay, the target named is T1, Caspase-3 (Homo sapiens, UniProt P42574).
T1 sequence (P42574 whole entry): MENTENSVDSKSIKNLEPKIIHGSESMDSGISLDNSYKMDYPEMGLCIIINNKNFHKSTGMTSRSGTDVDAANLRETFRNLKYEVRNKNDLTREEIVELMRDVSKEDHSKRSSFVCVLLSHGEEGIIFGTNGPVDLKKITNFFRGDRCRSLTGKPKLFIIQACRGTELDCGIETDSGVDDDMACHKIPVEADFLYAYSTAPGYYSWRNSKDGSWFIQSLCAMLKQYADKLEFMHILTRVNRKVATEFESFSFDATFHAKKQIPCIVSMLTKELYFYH
Description: SAR Analysis of small molecule inhibitors of Sentrin-specific proteases (SENPs) using a Caspase-3 Selectivity assay. [Related pubchem assays (depositor defined):AID2540, AID2599, AID434973, AID489001]. Format: functional.

Assay [9] has as its target T2, Sentrin-specific protease 8 (Homo sapiens, UniProt Q96LD8).
T2 sequence (Q96LD8 whole entry): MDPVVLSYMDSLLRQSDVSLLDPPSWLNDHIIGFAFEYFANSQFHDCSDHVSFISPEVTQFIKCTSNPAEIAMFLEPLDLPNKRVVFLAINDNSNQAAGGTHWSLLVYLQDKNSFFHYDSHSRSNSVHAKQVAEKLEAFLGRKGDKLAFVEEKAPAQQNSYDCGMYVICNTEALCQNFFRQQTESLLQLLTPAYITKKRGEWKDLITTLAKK
Nature of the assay: SENP8 protease inhibitors, SAR follow-up, biochemical, luminescence (AID 504501). It is filed as functional.

The target of assay [10] is T3, Sentrin-specific protease 7 (Homo sapiens, UniProt Q9BQF6).
T3 sequence (Q9BQF6 whole entry): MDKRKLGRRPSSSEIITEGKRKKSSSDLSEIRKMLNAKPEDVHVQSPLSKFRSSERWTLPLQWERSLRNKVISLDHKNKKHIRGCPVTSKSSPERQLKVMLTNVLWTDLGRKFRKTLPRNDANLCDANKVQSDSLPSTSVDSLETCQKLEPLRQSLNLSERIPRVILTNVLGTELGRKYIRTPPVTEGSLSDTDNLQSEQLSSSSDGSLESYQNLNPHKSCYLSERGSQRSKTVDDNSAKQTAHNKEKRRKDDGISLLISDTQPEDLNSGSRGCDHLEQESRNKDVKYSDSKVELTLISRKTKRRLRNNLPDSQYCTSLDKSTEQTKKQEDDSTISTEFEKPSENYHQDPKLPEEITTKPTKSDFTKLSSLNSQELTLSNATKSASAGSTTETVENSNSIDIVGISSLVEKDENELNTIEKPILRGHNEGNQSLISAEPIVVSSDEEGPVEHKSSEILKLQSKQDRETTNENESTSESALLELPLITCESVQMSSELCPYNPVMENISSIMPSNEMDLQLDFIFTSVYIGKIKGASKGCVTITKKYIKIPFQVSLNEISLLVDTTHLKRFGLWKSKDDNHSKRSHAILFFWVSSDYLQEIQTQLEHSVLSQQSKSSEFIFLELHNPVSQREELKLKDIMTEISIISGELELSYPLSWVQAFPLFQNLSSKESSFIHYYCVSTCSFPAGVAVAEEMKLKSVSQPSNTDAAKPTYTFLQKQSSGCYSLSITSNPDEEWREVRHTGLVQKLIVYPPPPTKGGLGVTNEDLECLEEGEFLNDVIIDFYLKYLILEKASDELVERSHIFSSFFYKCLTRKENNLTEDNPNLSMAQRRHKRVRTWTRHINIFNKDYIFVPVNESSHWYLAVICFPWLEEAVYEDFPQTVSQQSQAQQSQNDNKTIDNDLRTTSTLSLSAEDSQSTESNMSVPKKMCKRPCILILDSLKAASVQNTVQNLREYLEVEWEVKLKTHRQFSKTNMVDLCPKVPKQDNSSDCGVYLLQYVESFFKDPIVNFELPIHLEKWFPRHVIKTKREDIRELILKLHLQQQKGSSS
Nature of the assay: SENP7 protease inhibitors, SAR follow-up, biochemical, luminescence (AID 504497). Format: functional.

Assay [11] deals with T4, Sentrin-specific protease 6 (Homo sapiens, UniProt Q9GZR1).
T4 sequence (Q9GZR1 whole entry): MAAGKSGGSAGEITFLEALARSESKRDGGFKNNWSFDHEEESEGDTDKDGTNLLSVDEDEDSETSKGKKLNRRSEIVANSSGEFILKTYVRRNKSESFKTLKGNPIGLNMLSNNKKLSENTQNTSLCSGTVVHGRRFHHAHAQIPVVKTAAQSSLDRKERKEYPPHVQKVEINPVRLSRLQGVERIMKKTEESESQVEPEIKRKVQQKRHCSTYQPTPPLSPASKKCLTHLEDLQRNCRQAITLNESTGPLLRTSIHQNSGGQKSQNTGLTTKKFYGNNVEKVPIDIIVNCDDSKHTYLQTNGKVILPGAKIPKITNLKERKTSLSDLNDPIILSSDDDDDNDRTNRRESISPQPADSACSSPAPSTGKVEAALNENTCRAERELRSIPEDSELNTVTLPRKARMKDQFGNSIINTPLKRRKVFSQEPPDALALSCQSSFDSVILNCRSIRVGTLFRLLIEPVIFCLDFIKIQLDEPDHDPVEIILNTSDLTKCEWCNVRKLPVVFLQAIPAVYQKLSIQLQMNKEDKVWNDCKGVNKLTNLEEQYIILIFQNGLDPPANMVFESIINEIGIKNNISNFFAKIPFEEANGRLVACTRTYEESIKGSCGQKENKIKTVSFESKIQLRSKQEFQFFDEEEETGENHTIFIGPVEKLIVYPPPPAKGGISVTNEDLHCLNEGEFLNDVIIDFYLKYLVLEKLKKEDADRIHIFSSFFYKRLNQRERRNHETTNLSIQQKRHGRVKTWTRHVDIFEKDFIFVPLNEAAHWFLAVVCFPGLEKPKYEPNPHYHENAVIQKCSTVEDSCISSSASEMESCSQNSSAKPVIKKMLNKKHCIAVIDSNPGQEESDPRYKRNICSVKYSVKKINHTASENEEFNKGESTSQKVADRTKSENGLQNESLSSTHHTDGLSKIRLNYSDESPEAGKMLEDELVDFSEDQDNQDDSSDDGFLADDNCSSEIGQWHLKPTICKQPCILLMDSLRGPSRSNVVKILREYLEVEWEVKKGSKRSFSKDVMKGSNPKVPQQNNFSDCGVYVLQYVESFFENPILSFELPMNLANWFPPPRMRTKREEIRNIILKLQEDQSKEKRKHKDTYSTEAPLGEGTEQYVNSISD
Description: SAR Analysis of small molecule inhibitors of Sentrin-specific protease 6 (SENP6) using a Luminescent assay. [Related pubchem assays (depositor defined):AID2582, AID2599]. It is filed as functional.

Assay [12] deals with T5, Replicative DNA helicase DnaB (Mycobacterium tuberculosis, UniProt P9WMR3).
T5 sequence (P9WMR3 whole entry): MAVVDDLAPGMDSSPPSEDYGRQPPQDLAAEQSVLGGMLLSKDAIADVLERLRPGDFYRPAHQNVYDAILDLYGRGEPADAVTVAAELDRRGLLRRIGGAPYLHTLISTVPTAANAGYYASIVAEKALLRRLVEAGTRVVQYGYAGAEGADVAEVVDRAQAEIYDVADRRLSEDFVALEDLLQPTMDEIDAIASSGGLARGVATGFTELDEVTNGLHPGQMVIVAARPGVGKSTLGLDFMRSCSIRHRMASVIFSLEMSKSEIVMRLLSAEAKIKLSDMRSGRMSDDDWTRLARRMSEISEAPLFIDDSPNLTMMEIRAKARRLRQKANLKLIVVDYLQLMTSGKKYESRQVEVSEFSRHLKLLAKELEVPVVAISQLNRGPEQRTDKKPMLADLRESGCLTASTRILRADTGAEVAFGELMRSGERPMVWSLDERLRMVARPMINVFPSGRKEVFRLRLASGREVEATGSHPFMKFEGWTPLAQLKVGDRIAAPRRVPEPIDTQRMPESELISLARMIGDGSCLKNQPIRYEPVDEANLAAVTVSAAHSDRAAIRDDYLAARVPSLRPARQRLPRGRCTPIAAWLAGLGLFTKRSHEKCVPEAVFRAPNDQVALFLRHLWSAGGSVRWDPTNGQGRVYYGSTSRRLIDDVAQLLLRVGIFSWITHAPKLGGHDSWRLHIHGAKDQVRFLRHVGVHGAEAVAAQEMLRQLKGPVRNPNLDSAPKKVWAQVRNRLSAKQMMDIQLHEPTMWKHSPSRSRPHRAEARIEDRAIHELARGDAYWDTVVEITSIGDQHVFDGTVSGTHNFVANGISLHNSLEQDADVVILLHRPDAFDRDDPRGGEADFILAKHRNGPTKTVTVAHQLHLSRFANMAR
Description: DnaB intein splicing inhibitors, dose response, biochemical, cell-free fluorescence (AID 449749). It is filed as functional.

For a further assay, the target named is T6, Protein RecA (Mycobacterium tuberculosis, UniProt P9WHJ3).
T6 sequence (P9WHJ3 whole entry): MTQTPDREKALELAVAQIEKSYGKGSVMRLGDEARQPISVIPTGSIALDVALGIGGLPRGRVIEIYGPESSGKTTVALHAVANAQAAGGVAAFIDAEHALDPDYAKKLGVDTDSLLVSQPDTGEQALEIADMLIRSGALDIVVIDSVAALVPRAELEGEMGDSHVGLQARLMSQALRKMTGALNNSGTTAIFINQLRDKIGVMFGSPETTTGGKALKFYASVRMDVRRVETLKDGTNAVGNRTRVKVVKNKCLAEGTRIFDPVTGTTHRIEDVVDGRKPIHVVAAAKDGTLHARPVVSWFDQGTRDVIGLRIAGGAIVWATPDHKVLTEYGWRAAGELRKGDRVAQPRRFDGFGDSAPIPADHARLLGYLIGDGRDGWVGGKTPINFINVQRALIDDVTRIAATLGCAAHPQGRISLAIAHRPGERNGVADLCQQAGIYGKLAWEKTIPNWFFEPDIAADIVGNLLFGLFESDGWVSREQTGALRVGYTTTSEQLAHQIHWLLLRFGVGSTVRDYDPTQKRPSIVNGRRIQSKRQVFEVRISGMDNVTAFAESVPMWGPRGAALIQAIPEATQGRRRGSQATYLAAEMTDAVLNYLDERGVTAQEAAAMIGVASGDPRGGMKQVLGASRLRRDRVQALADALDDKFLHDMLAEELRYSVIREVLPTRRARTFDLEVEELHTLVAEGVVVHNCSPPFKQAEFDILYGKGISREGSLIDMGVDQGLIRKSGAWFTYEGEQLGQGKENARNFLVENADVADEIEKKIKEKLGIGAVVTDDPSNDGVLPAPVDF
Nature of the assay: Fluorescence Cell-Free Homogeneous Dose Retest to Identify Inhibitors of RecA-Intein Splicing Activity. [Related pubchem assays (depositor defined):AID2097, AID2223, AID489010, AID492950]. It is filed as functional.

Activity calls are given as the source filed them.

On to `COc1cc([C@H]2c3[nH]c4ccccc4c3C[C@H]3C(=O)N4[C@@H](c5cc(OC)c(OC)c(OC)c5)c5[nH]c6ccccc6c5C[C@H]4C(=O)N23)cc(OC)c1OC`, for which the EC50 in the assay with BJ [1] was 3.48 µM (active); in the assay on BJ [2], > 150 µM (inconclusive); in assay [4], 5.02 µM (active); in the assay on BJ [5] it was 14.3 µM (inconclusive); in the assay with BJ [6], > 133 µM (inactive). Further, the CC50 in assay [3] is 19.1 µM (active).

In the case of `CCCCc1c(C)c(C#N)c2nc3ccccc3n2c1Cl`, the EC50 in the assay on BJ [1] was 2.22 µM (active); in the assay with BJ [2], 2.85 µM (active); in [7] it was 1.88 µM (active); in [8], 1.52 µM (active); in assay [4], 2.76 µM (active); in the assay on BJ [5], 1.75 µM (inconclusive). In addition, the EC50 with BJ [6] is 0.57 µM (active).

Regarding `O=C(/C=C/c1ccc(OC2CSC2)cc1)c1ccc(Cl)cc1`, the IC50 (at Caspase-3; in assay [9]; in assay [10]; in [11]) was > 99 µM (inactive) each time.

With `Cc1ccc(C2=NN(C(=O)CCl)C(c3ccco3)C2)o1` (stereo unspecified), the AC50 in assay [12] was 30.3 µM (active). The EC50 is 3.33 µM (inconclusive) with BJ [1]; 5.58 µM (active) at Protein RecA; 5.27 µM (active) in assay [4]; 11.1 µM (inconclusive) in the assay on BJ [5]; 3.42 µM (active) in the assay on BJ [6].

Turning to `O=C(Nc1nc2ccc(NC(=O)c3n[nH]c4c3CCc3ccccc3-4)cc2s1)c1ccccc1`, the IC50 (at Caspase-3; in assay [9]; in [10]; in [11]) was > 99 µM (inactive) throughout.

Consider `Fc1cc(C(F)(F)F)ccc1-c1nc(/C=C/c2ccccc2)no1`, for which the IC50 (on Caspase-3; in assay [9]; in assay [10]; in assay [11]) was > 99 µM (inactive) throughout.

Usually EC50 stands for the midpoint of the concentration-response curve. Broadly, the CC50 is the concentration that lowers cell viability or growth by half. Broadly, the IC50 is the concentration that gives 50% inhibition. What is called AC50 is the concentration at which the activity in the assay is half-maximal.
